# Data reported in US9889146B2, “Benzoxaborole compounds and uses thereof” (priority 2012, dated 2018).
# Read-outs that look alike come from different tables or passages of the source.
# Assays:
# Type in all cases: cell-based
# [1] = test system: K. pneumoniae ATCC 13883 wild type and mutants; assay: MIC in M9 minimal media; details: Klebsiella pneumoniae, read-out: MICs in M9 minimal media
# Method: (§1) Spontaneous Resistance Frequency was determined in vitro for GSK2251052 and the resistance mutants in E. coli ATCC 25922, K. pneumoniae ATCC 13883, and P. aeruginosa ATCC 27853 strains were characterized. GSK2251052 was prepared as described in U.S. Pat. No. 7,816,344 (the entire contents of which are hereby incorporated by reference herein). LB broth, Mueller Hinton II broth (adjusted), and Difco noble agar were obtained from Becton Dickinson (Cockeysville, Md., USA). M9 minimal broth containing 1×M9 salt, 0.5 μg/ML thiamine, 1 mM MgSO4, 0.1 mM CaCl2, 2% glucose, was obtained from Teknova (Hollister, Calif., USA). Antibacterial agents ciprofloxacin, ceftazidime, chloramphenicol, gentamycin, kanamycin, polymixin B, tobramycin and trimethoprim, and amino acids were obtained from Sigma Chemicals (St. Louis, Mo., USA). Strains were obtained from ATCC (Manassas, Va., USA).
# (§2) Susceptibility tests were performed following the recommendations for aerobic bacteria (M7-A7) from the Clinical and Laboratories Standards Institute (CLSI).
# (§3) The aminoacyl-tRNA synthetase enzyme, LeuRS, ensures the correct amino acid, leucine, is attached to tRNA^Leu. The LeuRS synthetic active site is capable of aminoacylating tRNA^Leu with amino acids structural similar to leucine (norvaline, norleucine, isoleucine and methionine). These mischarged tRNA^Leu are hydrolyzed by the editing domain, thus preventing the deleterious incorporation of incorrect amino acids into the growing polypeptide. The laboratory generated mutants were further tested for their ability to grow in defined media with exogenously added amino acids. Norvaline and norleucine, structurally similar to leucine, were tested in M9 minimal media. […]
# [2] = test system: E. coli ATCC 25922 wild type and mutants; assay: MIC in M9 minimal media; details: Escherichia coli, read-out: MICs in M9 minimal media
# Method: as §1, §2, §3
# [3] = test system: P. aeruginosa ATCC 27853 wild type and mutants; assay: MIC in M9 minimal media; details: Pseudomonas aeruginosa, read-out: MICs in M9 minimal media
# Method: as §1, §2, §3
# Klebsiella spp. (WT) = assay: microbe, parasite or virus in culture; details: Klebsiella spp. (WT)
# [4] = test system: Enterobacter cloacae (WT); assay: microbe, parasite or virus in culture
# Providencia spp.(all) = assay: microbe, parasite or virus in culture; details: Providencia spp.(all)
# [5] = test system: clinical isolates from the four subjects (E. coli, P. mirabilis, K. pneumoniae); assay: Resistance in clinical isolates of the phase II clinical trial
# Method: A comparative, dose-ranging study of GSK2251052 vs. imipenem-cilastatin in complicated lower urinary tract infection and pyelonephritis was undertaken with 210 targeted patients (20 actually enrolled) in a phase II clinical trial. The study was designed to determine the appropriate and safe dose for Phase III trials. Doses were 750 mg or 1500 mg twice a day, compared to an active comparator, with an independent safety review committee.
# The phase II clinical trial identified four subjects who developed spontaneous resistance to GSK2251052 as evidenced by increased MICs (>32-fold) determined for the clinical isolates from the four subjects. Two of the resistant mutant strains identified were E. coli strains, one was a P. mirabilis strain, and one was a K. pneumoniae strain.
# [6] = test system: Enterobacter aerogenes (AmpC); assay: microbe, parasite or virus in culture; details: Klebsiella aerogenes
# Klebsiella spp. (KPC) = assay: microbe, parasite or virus in culture; details: Klebsiella
# S. marcescens (AmpC) = assay: microbe, parasite or virus in culture; details: Serratia marcescens
# Proteus vulgaris (WT) = assay: microbe, parasite or virus in culture; details: Proteus vulgaris (WT)
# Enterobacteriaceae = assay: organism not typed; details: Enterobacteriaceae
# E. coli (ESBL) = assay: microbe, parasite or virus in culture; details: Escherichia coli
# P. aeruginosa = assay: In vitro activity against P. aeruginosa clinical isolates; details: for % susceptible: P. aeruginosa, 2,008 clinical isolates, GSK2251052 based on potential susceptible breakpoint of ≦4 μg/mL
# Method: GSK2251052 was tested for activity against P. aeruginosa, and its activity was compared to other antibiotics of known activity. The results are shown below in Tables 2a and 2b. Of 2,008 clinical isolates tested (from 2009-2010 subjects, of which 40% were from North America) greater than 90% were susceptible to GSK2251052 based on a potential susceptible breakpoint of ≦4 μg/mL.
# Klebsiella spp. (ESBL) = assay: microbe, parasite or virus in culture; details: Klebsiella
# Proteus mirabilis (WT) = assay: microbe, parasite or virus in culture; details: Proteus mirabilis (WT)
# [7] = GSK2251052 breakpoint, read-out: susceptibility category of MIC90
# [8] = read-out: susceptibility category of MIC90
# [9] = Pseudomonas aeruginosa, P. aeruginosa clinical isolates
compound,measurement,setting,value
"NC[C@H]1OB(O)c2c(OCCCO)cccc21 [GSK2251052, (S)-3-aminomethyl-7-(3-hydroxy-propoxy)-3h-benzo[c][1,2]oxaborol-1-ol]",MIC,"[1]; ATCC13883, K 104(leuRS D345Y)",> 256 µg/mL
same,MIC,"[1]; ATCC13883, K 105(leuRS G229R)",> 256 µg/mL
same,MIC,"[1]; ATCC13883, K 107(leuRS S227F)",32 µg/mL
same,MIC,"[1]; ATCC13883, K 108(leuRS T248P)",> 256 µg/mL
same,MIC,"[1]; ATCC13883, K 110(leuRS V338L)",64 µg/mL
same,MIC,"[1]; ATCC13883, Klebsiella pneumoniae ATCC13883",2 µg/mL
same,MIC,"[2]; ATCC25922, E 101(leuRS Y246H)",64 µg/mL
same,MIC,"[2]; ATCC25922, E 102(leuRS D345G)",> 256 µg/mL
same,MIC,"[2]; ATCC25922, E 107(leuRS G229S)",128 µg/mL
same,MIC,"[2]; ATCC25922, E. coli ATCC25922",1 µg/mL
same,MIC,"[3]; ATCC27853, P 101 (leuRS T256P)",128 µg/mL
same,MIC,"[3]; ATCC27853, P 106 (leuRS V342M)",> 256 µg/mL
same,MIC,"[3]; ATCC27853, P 108 (leuRS T252P)",> 256 µg/mL
same,MIC,"[3]; ATCC27853, P. aeruginosa ATCC27853",4 µg/mL
same,MIC90,"Klebsiella spp. (WT); 159 isolates, read-out: MIC90",1 µg/mL
same,MIC90,Klebsiella spp. (WT); [7],< 4 µg/mL
same,MIC90,"[4]; 202 isolates, read-out: MIC90",1 µg/mL
same,susceptibility category of MIC90,[4]; [7],< 4 µg/mL
same,MIC90,"Providencia spp.(all); 68 isolates, read-out: MIC90",1 µg/mL
same,susceptibility category of MIC90,Providencia spp.(all); [7],< 4 µg/mL
same,rates of spontaneous resistance,[5]; baseline isolates tested,~10^−7
same,increase of MICs in clinical isolates,"[5]; four subjects who developed spontaneous resistance, phase II trial",> 32 fold
same,MIC90,[6],1 µg/mL
same,MIC90,[6]; [8],< 4 µg/mL
same,MIC90,Klebsiella spp. (KPC),2 µg/mL
same,MIC90,Klebsiella spp. (KPC); [8],< 4 µg/mL
same,MIC90,S. marcescens (AmpC),1 µg/mL
same,MIC90,S. marcescens (AmpC); [8],< 4 µg/mL
same,MIC90,"Proteus vulgaris (WT); 41 isolates, read-out: MIC90",1 µg/mL
same,susceptibility category of MIC90,Proteus vulgaris (WT); [7],< 4 µg/mL
same,MIC90,"Enterobacteriaceae; 2029 isolates, read-out: MIC90",1 µg/mL
same,susceptibility category of MIC90,Enterobacteriaceae; [7],< 4 µg/mL
same,MIC90,E. coli (ESBL),1 µg/mL
same,MIC90,E. coli (ESBL); [8],< 4 µg/mL
same,MIC Range,P. aeruginosa; P. aeruginosa clinical isolates,0.06 to 64 µg/mL
same,% susceptible,P. aeruginosa,greater than 90%
same,% susceptible,P. aeruginosa; listed as GSK2250152,92.8%
same,MIC50,P. aeruginosa; [9],2 µg/mL
same,MIC90,P. aeruginosa; [9],4 µg/mL
same,MIC90,Klebsiella spp. (ESBL),1 µg/mL
same,MIC90,Klebsiella spp. (ESBL); [8],< 4 µg/mL
same,MIC90,"Proteus mirabilis (WT); 235 isolates, read-out: MIC90",1 µg/mL
same,susceptibility category of MIC90,Proteus mirabilis (WT); [7],< 4 µg/mL
